Source: patent US9969699B2, “Cancer cell growth inhibitor, anticancer agent, and method for screening same, as well as novel compound” (Microbial Chemistry Research Foundation, priority 2014, dated 2018)

How the values were obtained:
[1] = Acute toxicity test, oral administration; type: in vivo, ICR mice; conditions: orally once; for Organ weight Heart / Organ weight Kidney (Left) / Organ weight Kidney (Right) / Organ weight Liver / Organ weight Lung / Organ weight Spleen / Organ weight Thymus: two weeks after
Description: Two-weeks after the compounds represented by the Structural Formula (1) at the above concentrations were orally administered, the mice were dissected and organs thereof were weighed.
Two-weeks after the compounds represented by the Structural Formula (8) at the above concentrations were orally administered, the mice were dissected and organs thereof were weighed.

[2] = test system: NIH3T3/EGFRWT cell-transplanted tumor
Description: Note that, “*” denotes t<0.05.

[3] = test system: NIH3T3 cells; test: 2D cell culture step (environment with adhesion scaffold), proliferation of NIH3T3 cells; type: cell-based; conditions: Mus musculus, 72 h; NIH3T3 cells, TC-treated plate, 3 days, […]-GLO; read-out: IC50 2D cell culture step
Description: Note that, as a negative control, the NIH3T3 cells at 2×10^3 cells/100 were seeded to the same plate in a volume of 100 μL per well and cultured at 37° C. in the presence of 5% CO2 for 3 days without the addition of the test substance.
Note that, Dulbecco's Modified Eagle Medium supplemented with 5% FBS was used for the culture.
A cell proliferation inhibition rate in the 2D cell culture step was calculated according to (Expression 2) below. Cell proliferation inhibition rate(%)=(1−D/E)×100 (Expression 2)
In the (Expression 2), D denotes the number of viable NIH3T3 cells when the test substance was added, and E denotes the number of viable NIH3T3 cells when the test substance was not added.

Question: Which results are given for `Nc1ccc(Br)cc1-c1nc2ccccc2[nH]c1=O` [Structural Formula (1), 3-(2-amino-5-bromophenyl)-2(1H)-quinoxalinone]?
Answer: Organ weight Heart ([1]; 0.098 mg/kg/0.2 mL): 124.0 mg; Organ weight Kidney (Left) ([1]; 0.098 mg/kg/0.2 mL): 183.0 mg; Organ weight Kidney (Right) ([1]; 0.098 mg/kg/0.2 mL): 191.0 mg; Organ weight Liver ([1]; 0.098 mg/kg/0.2 mL): 1524.0 mg; Organ weight Lung ([1]; 0.098 mg/kg/0.2 mL): 163.0 mg; Organ weight Spleen ([1]; 0.098 mg/kg/0.2 mL): 132.0 mg; Organ weight Heart ([1]; 6.25 mg/kg/0.2 mL): 122.0 mg; Organ weight Lung ([1]; 6.25 mg/kg/0.2 mL): 169.0 mg; Organ weight Thymus ([1]; 6.25 mg/kg/0.2 mL): 112.0 mg; Organ weight Heart ([1]; 12.5 mg/kg/0.2 mL): 143.0 mg; Organ weight Kidney (Left) ([1]; 12.5 mg/kg/0.2 mL): 177.0 mg; Organ weight Kidney (Right) ([1]; 12.5 mg/kg/0.2 mL): 177.0 mg; Organ weight Liver ([1]; 12.5 mg/kg/0.2 mL): 1327.0 mg; Organ weight Lung ([1]; 12.5 mg/kg/0.2 mL): 191.0 mg; Organ weight Spleen ([1]; 12.5 mg/kg/0.2 mL): 173.0 mg; Organ weight Thymus ([1]; 12.5 mg/kg/0.2 mL): 99.0 mg; Organ weight Heart ([1]; 25 mg/kg/0.2 mL): 116.0 mg; Organ weight Kidney (Left) ([1]; 25 mg/kg/0.2 mL): 157.0 mg; Organ weight Kidney (Right) ([1]; 25 mg/kg/0.2 mL): 169.0 mg; Organ weight Liver ([1]; 25 mg/kg/0.2 mL): 1290.0 mg; Organ weight Lung ([1]; 25 mg/kg/0.2 mL): 176.0 mg; Organ weight Spleen ([1]; 25 mg/kg/0.2 mL): 100.0 mg; Organ weight Thymus ([1]; 25 mg/kg/0.2 mL): 87.0 mg; Organ weight Heart ([1]; 50 mg/kg/0.4 mL): 115.0 mg; Organ weight Kidney (Left) ([1]; 50 mg/kg/0.4 mL): 150.0 mg; Organ weight Kidney (Right) ([1]; 50 mg/kg/0.4 mL): 155.0 mg; Organ weight Liver ([1]; 50 mg/kg/0.4 mL): 1403.0 mg; Organ weight Lung ([1]; 50 mg/kg/0.4 mL): 166.0 mg; Organ weight Spleen ([1]; 50 mg/kg/0.4 mL): 117.0 mg; Organ weight Thymus ([1]; 50 mg/kg/0.4 mL): 95.0 mg; toxicity ([1]; 0.098 to 50 mg/kg, observed 2 weeks): no significant toxicity; tumor proliferation inhibiting activity ([2]; 30 mg/kg intraperitoneally once a day, day 1 to day 17): exhibited the tumor proliferation inhibiting activity; tumor proliferation inhibiting activity compared with Gefitinib ([2]; 30 mg/kg intraperitoneally vs Gefitinib 200 mg/kg orally): comparable; IC50 [3]: > 10 µM
